This is an account of results in ChEMBL document CHEMBL4219129, “Design, synthesis and biological evaluation of spiropyrimidinetriones oxazolidinone derivatives as antibacterial agents” (2018).

Converted amounts (≈) assume the structure as drawn.

What all share (assay type): functional
The subject of assay [1] is Staphylococcus aureus. The assay can be described thus: Antibacterial activity against PVL positive Staphylococcus aureus.
The subject of assay [2] is Staphylococcus aureus. As to the kind of experiment: Antibacterial activity against Staphylococcus aureus ATCC 29213.
In assay [3] the test system is Staphylococcus aureus. The assay can be described thus: Antibacterial activity against Staphylococcus aureus FDA 209P.
The test system of assay [4] is Staphylococcus aureus. The assay can be described thus: Antibacterial activity against methicillin-resistant Staphylococcus aureus 562.
Assay [5] deals with Staphylococcus aureus. As to the kind of experiment: Antibacterial activity against methicillin-resistant Staphylococcus aureus 1201984.
The test system of assay [6] is Staphylococcus aureus. As to the kind of experiment: Antibacterial activity against methicillin-resistant Staphylococcus aureus DB-00026.
Assay [7] deals with Staphylococcus aureus. As to the kind of experiment: Antibacterial activity against methicillin-resistant Staphylococcus aureus USA300 BAA-1556.
Assay [8] has as its system Staphylococcus aureus. As to the kind of experiment: Antibacterial activity against Staphylococcus aureus Mu50 ATCC 700699.
The subject of assay [9] is Staphylococcus aureus. As to the kind of experiment: Antibacterial activity against linezolid-resistant Staphylococcus aureus O-128.
For assay [10], the system named is Staphylococcus aureus. As to the kind of experiment: Antibacterial activity against […] Staphylococcus aureus ATCC 13709 SMITH.
The subject of assay [11] is Staphylococcus epidermidis. The assay can be described thus: Antibacterial activity against Staphylococcus epidermidis ATCC 12228.
The subject of assay [12] is Staphylococcus epidermidis. As to the kind of experiment: Antibacterial activity against methicillin-resistant Staphylococcus epidermidis ATCC 35984.
For assay [13], the system named is Staphylococcus epidermidis. The assay can be described thus: Antibacterial activity against linezolid-resistant Staphylococcus epidermidis 1117174.
The test system of assay [14] is Staphylococcus epidermidis. The assay can be described thus: Antibacterial activity against linezolid-resistant Staphylococcus epidermidis 1089191.
Assay [15] concerns Escherichia coli. As to the kind of experiment: Antibacterial activity against TolC-deficient Escherichia coli.
In assay [16] the test system is Escherichia coli. The assay can be described thus: Antibacterial activity against Escherichia coli MG1655. The following applies: K-12 substr. MG1655.

For `O=C1O[C@@H](CO)CN1c1ccc2c(c1)CC1(C(=O)NNC1=O)C1COCCN21` (some centres undefined), the minimum inhibitory concentration (MIC) against Staphylococcus aureus [1], against Staphylococcus aureus [2], against Staphylococcus aureus [3], with Staphylococcus aureus [4], with Staphylococcus aureus [5] and in the assay with Staphylococcus aureus [6] was over 32 µg/mL in each case. Besides, the MIC (with Staphylococcus aureus [7]; against Staphylococcus aureus [8]; against Staphylococcus aureus [9]; in the assay with Staphylococcus aureus [10]; in [11]; in assay [12]) was over 32 µg/mL each time. In addition, the MIC was 32 µg/mL (≈ 82.4 µM) in assay [13], over 32 µg/mL in assay [14], over 32 µg/mL with Escherichia coli [15] and over 32 µg/mL with Escherichia coli [16].
Consider `CC(=O)NC[C@H]1CN(c2ccc3c(c2)CC2(C(=O)NNC2=O)C2COCCN32)C(=O)O1` (some centres undefined), for which the MIC in the assay with Staphylococcus aureus [1], with Staphylococcus aureus [2], against Staphylococcus aureus [3], against Staphylococcus aureus [4], against Staphylococcus aureus [5] and with Staphylococcus aureus [6] was over 32 µg/mL each time. Besides, the MIC (with Staphylococcus aureus [7]; in the assay on Staphylococcus aureus [8]; against Staphylococcus aureus [9]; in the assay on Staphylococcus aureus [10]; in [11]; in assay [12]) was over 32 µg/mL in each case. The MIC was 32 µg/mL (≈ 74.5 µM) in assay [13], over 32 µg/mL in assay [14], over 32 µg/mL in the assay with Escherichia coli [15] and over 32 µg/mL against Escherichia coli [16].
As for `O=C1NC(=O)C2(Cc3cc(N4C[C@H](CO)OC4=O)ccc3N3CCOCC32)C(=O)N1` (some centres undefined), the MIC against Staphylococcus aureus [1], in the assay on Staphylococcus aureus [2], against Staphylococcus aureus [3], against Staphylococcus aureus [4], in the assay with Staphylococcus aureus [5] and against Staphylococcus aureus [6] was over 32 µg/mL throughout. Besides, the MIC (against Staphylococcus aureus [7]; against Staphylococcus aureus [8]; with Staphylococcus aureus [9]; with Staphylococcus aureus [10]; in assay [11]; in [12]) was over 32 µg/mL each time. Moreover, the MIC is 32 µg/mL (≈ 76.9 µM) in [13], over 32 µg/mL in [14], over 32 µg/mL against Escherichia coli [15] and over 32 µg/mL with Escherichia coli [16].
Take `O=C1O[C@@H](CO)CN1c1ccc(-c2ccc3c(c2)CC2(C(=O)NNC2=O)C2CCCN32)c(F)c1` (some centres undefined): the MIC in the assay on Staphylococcus aureus [1] was over 32 µg/mL; against Staphylococcus aureus [2], 4 to 32 µg/mL (≈ 8.58 to 68.6 µM); against Staphylococcus aureus [3], 32 µg/mL (≈ 68.6 µM); against Staphylococcus aureus [4], 2 to 32 µg/mL (≈ 4.29 to 68.6 µM); against Staphylococcus aureus [5], over 32 µg/mL; against Staphylococcus aureus [6] it was 8 to 16 µg/mL (≈ 17.2 to 34.3 µM). For the same compound, the MIC in the assay with Staphylococcus aureus [7] is 32 µg/mL (≈ 68.6 µM); against Staphylococcus aureus [8], 16 µg/mL (≈ 34.3 µM); in the assay with Staphylococcus aureus [9], over 32 µg/mL; with Staphylococcus aureus [10], at least 32 µg/mL; in assay [11], 2 to 32 µg/mL (≈ 4.29 to 68.6 µM); in assay [13] it was at least 32 µg/mL. Moreover, the MIC (in assay [14]; in the assay with Escherichia coli [15]; in the assay on Escherichia coli [16]) was over 32 µg/mL in each case.
For `CC(=O)NC[C@H]1CN(c2ccc3c(c2)CC2(C(=O)NC(=O)NC2=O)C2COCCN32)C(=O)O1` (some centres undefined), the MIC against Staphylococcus aureus [1], in the assay on Staphylococcus aureus [2], in the assay with Staphylococcus aureus [3], in the assay with Staphylococcus aureus [4], with Staphylococcus aureus [5] and in the assay on Staphylococcus aureus [6] was over 32 µg/mL each time. Also, the MIC (against Staphylococcus aureus [7]; with Staphylococcus aureus [8]; in the assay on Staphylococcus aureus [9]; in the assay on Staphylococcus aureus [10]; in assay [11]; in [12]) was over 32 µg/mL each time. In addition, the MIC in assay [13] was 32 µg/mL (≈ 70 µM); in assay [14], over 32 µg/mL; against Escherichia coli [15], over 32 µg/mL; in the assay with Escherichia coli [16], over 32 µg/mL.
